Measured values as given in patent US20230085307A1, “PYRIDAZINONE COMPOUND AND HERBICIDE” (NISSAN CHEMICAL CORPORATION, priority 2019, published 2023).

Tests used:
late watergrass = assay: Test Example 1: herbicidal activity, application before weed generation under submerged conditions (Table 16, symbol A); assay type: in vivo, late watergrass (Echinochloa oryzicola); settings: 320 g/ha applied herbicide
Outline: (§1)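 Emulsion formulation, water-diluted to set dose, was put onto the flooded surface (4 cm depth, alluvial soil) the same day weeds were sown and 2.5-leaf rice transplanted. After 3 weeks at 25-30 °C under glass, each species was rated 0 (≤5% kill) to 5 (≥90% kill).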

Japanese bulrush = assay: Test Example 1: herbicidal activity, application before weed generation under submerged conditions (Table 16, symbol B); assay type: in vivo, Japanese bulrush (Schoenoplectus juncoides); settings: 320 g/ha applied herbicide
Outline: as §1

oval-leafed pondweed = assay: Test Example 1: herbicidal activity, application before weed generation under submerged conditions (Table 16, symbol C); assay type: in vivo, oval-leafed pondweed (Monochoria vaginalis); settings: 320 g/ha applied herbicide
Outline: as §1

barnyard grass [1] = assay: Test Example 3: herbicidal effect by foliage application, Wagner pot (Table 18, symbol H); assay type: in vivo, barnyard grass (Echinochloa crus-galli)
Outline: (§2)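 Plants were sown in alluvial soil held under 0.1–0.5 cm standing water and grown 14 days in a greenhouse at 25–30 °C. An emulsifiable formulation, water-diluted to the set dose, was then sprayed onto the foliage, and effects were scored three weeks later using previously defined criteria.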

Chinese sprangletop = assay: Test Example 3: herbicidal effect by foliage application, Wagner pot (Table 18, symbol D); assay type: in vivo, chinese sprangletop (Leptochloa chinensis)
Outline: as §2

rice flat sedge = assay: Test Example 3: herbicidal effect by foliage application, Wagner pot (Table 18, symbol E); assay type: in vivo, rice flat sedge (Cyperus iria)
Outline: as §2

southern crabgrass [2] = assay: Test Example 4: herbicidal effect by soil treatment (Table 19, symbol F); assay type: in vivo, southern crabgrass (Digitaria ciliaris); settings: amount of applied herbicide 320 g/ha
Outline: (§3)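 Seeds were sown in sterilized diluvial soil and covered with about 1.5 cm of soil. An emulsion formulation diluted with water to a predetermined herbicide amount was sprayed evenly onto the soil surface. Plants grew in a greenhouse at 25° C. to 30° C., and the effect was scored three weeks after application using criteria from an earlier test.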

green foxtail [3] = assay: Test Example 4: herbicidal effect by soil treatment (Table 19, symbol G); assay type: in vivo, green foxtail (Setaria viridis); settings: amount of applied herbicide 320 g/ha
Outline: as §3

barnyard grass [4] = assay: Test Example 4: herbicidal effect by soil treatment (Table 19, symbol H); assay type: in vivo, barnyard grass (Echinochloa crus-galli); settings: amount of applied herbicide 320 g/ha
Outline: as §3

wild oat [5] = assay: Test Example 4: herbicidal effect by soil treatment (Table 19, symbol I); assay type: in vivo, wild oat (Avena fatua); settings: amount of applied herbicide 320 g/ha
Outline: as §3

Italian ryegrass [6] = assay: Test Example 4: herbicidal effect by soil treatment (Table 19, symbol K); assay type: in vivo, Italian ryegrass (Lolium multiflorum); settings: amount of applied herbicide 320 g/ha
Outline: as §3

windgrass [7] = assay: Test Example 4: herbicidal effect by soil treatment (Table 19, symbol L); assay type: in vivo, windgrass (Apera spica-venti); settings: amount of applied herbicide 320 g/ha
Outline: as §3

velvetleaf [8] = assay: Test Example 4: herbicidal effect by soil treatment (Table 19, symbol M); assay type: in vivo, velvetleaf (Abutilon theophrasti); settings: amount of applied herbicide 320 g/ha
Outline: as §3

redroot pigweed [9] = assay: Test Example 4: herbicidal effect by soil treatment (Table 19, symbol N); assay type: in vivo, redroot pigweed (Amaranthus retroflexus); settings: amount of applied herbicide 320 g/ha
Outline: as §3

lambsquarters [10] = assay: Test Example 4: herbicidal effect by soil treatment (Table 19, symbol O); assay type: in vivo, lambsquarters (Chenopodium album); settings: amount of applied herbicide 320 g/ha
Outline: as §3

false cleavers = assay: Test Example 4: herbicidal effect by soil treatment (Table 19, symbol Q); assay type: in vivo, false cleavers (Galium spurium); settings: amount of applied herbicide 320 g/ha
Outline: as §3

southern crabgrass [11] = assay: Test Example 5: herbicidal effect by foliage application, plastic box (Table 20, symbol F); assay type: in vivo, southern crabgrass (Digitaria ciliaris); settings: evaluated three weeks after application
Outline: (§4)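 Plants sown in sterilized diluvial soil and grown 14 days in a greenhouse at 25° C to 30° C, then sprayed on the foliage with the compound's emulsion diluted in water to a predetermined herbicide amount. Injury to weeds and crops scored three weeks after application on a visual rating scale.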

green foxtail [12] = assay: Test Example 5: herbicidal effect by foliage application, plastic box (Table 20, symbol G); assay type: in vivo, green foxtail (Setaria viridis); settings: evaluated three weeks after application
Outline: as §4

barnyard grass [13] = assay: Test Example 5: herbicidal effect by foliage application, plastic box (Table 20, symbol H); assay type: in vivo, barnyard grass (Echinochloa crus-galli); settings: evaluated three weeks after application
Outline: as §4

wild oat [14] = assay: Test Example 5: herbicidal effect by foliage application, plastic box (Table 20, symbol I); assay type: in vivo, wild oat (Avena fatua); settings: evaluated three weeks after application
Outline: as §4

blackgrass [15] = assay: Test Example 5: herbicidal effect by foliage application, plastic box (Table 20, symbol J); assay type: in vivo, blackgrass (Alopecurus myosuroides); settings: evaluated three weeks after application
Outline: as §4

Italian ryegrass [16] = assay: Test Example 5: herbicidal effect by foliage application, plastic box (Table 20, symbol K); assay type: in vivo, Italian ryegrass (Lolium multiflorum); settings: evaluated three weeks after application
Outline: as §4

windgrass [17] = assay: Test Example 5: herbicidal effect by foliage application, plastic box (Table 20, symbol L); assay type: in vivo, windgrass (Apera spica-venti); settings: evaluated three weeks after application
Outline: as §4

velvetleaf [18] = assay: Test Example 5: herbicidal effect by foliage application, plastic box (Table 20, symbol M); assay type: in vivo, velvetleaf (Abutilon theophrasti); settings: evaluated three weeks after application
Outline: as §4

redroot pigweed [19] = assay: Test Example 5: herbicidal effect by foliage application, plastic box (Table 20, symbol N); assay type: in vivo, redroot pigweed (Amaranthus retroflexus); settings: evaluated three weeks after application
Outline: as §4

lambsquarters [20] = assay: Test Example 5: herbicidal effect by foliage application, plastic box (Table 20, symbol O); assay type: in vivo, lambsquarters (Chenopodium album); settings: evaluated three weeks after application
Outline: as §4

chickweed [21] = assay: Test Example 5: herbicidal effect by foliage application, plastic box (Table 20, symbol P); assay type: in vivo, common chickweed (Stellaria media); settings: evaluated three weeks after application
Outline: as §4

persian speedwell [22] = assay: Test Example 5: herbicidal effect by foliage application, plastic box (Table 20, symbol R); assay type: in vivo, Persian speedwell (Veronica persica); settings: evaluated three weeks after application
Outline: as §4

blackgrass [23] = assay: Test Example 4: herbicidal effect by soil treatment (Table 19, symbol J); assay type: in vivo, blackgrass (Alopecurus myosuroides); settings: amount of applied herbicide 320 g/ha
Outline: as §3

chickweed [24] = assay: Test Example 4: herbicidal effect by soil treatment (Table 19, symbol P); assay type: in vivo, common chickweed (Stellaria media); settings: amount of applied herbicide 320 g/ha
Outline: as §3

persian speedwell [25] = assay: Test Example 4: herbicidal effect by soil treatment (Table 19, symbol R); assay type: in vivo, Persian speedwell (Veronica persica); settings: amount of applied herbicide 320 g/ha
Outline: as §3

[26] = amount of applied herbicide 320 g/ha
[27] = foliage application, AAH 320 g/ha
[28] = 320 g/ha, foliage application after 14-day growth

Cc1nn(C)c(=O)c(-c2c(-c3ccc(COCC(F)(F)F)cc3)sc3ccc(F)cc23)c1O [2-315]
Herbicidal effect on A: late watergrass (grade 0-5) (late watergrass): 4 (Herbicidal rate of 70% or more and less than 90%) | Herbicidal effect on B: Japanese bulrush (grade 0-5) (Japanese bulrush): 0 (Herbicidal rate of 5% or less (almost no effect)) | Herbicidal effect on C: oval-leafed pondweed (grade 0-5) (oval-leafed pondweed): 0 (Herbicidal rate of 5% or less (almost no effect)) | herbicidal effect on H: barnyard grass (barnyard grass [1]; [26]): 5 (Herbicidal rate of 90% or more (almost completely withered)) | herbicidal effect on D: Chinese sprangletop (Chinese sprangletop; [26]): 3 (Herbicidal rate of 40% or more and less than 70%) | herbicidal effect on E: rice flat sedge (rice flat sedge; [26]): 5 (Herbicidal rate of 90% or more (almost completely withered)) | herbicidal effect on F: southern crabgrass (southern crabgrass [2]): 2 (Herbicidal rate of 20% or more and less than 40%) | herbicidal effect on G: green foxtail (green foxtail [3]): 3 (Herbicidal rate of 40% or more and less than 70%) | herbicidal effect on H: barnyard grass (barnyard grass [4]): 3 (Herbicidal rate of 40% or more and less than 70%) | herbicidal effect on I: wild oat (wild oat [5]): 0 (Herbicidal rate of 5% or less (almost no effect)) | herbicidal effect on K: Italian ryegrass (Italian ryegrass [6]): 4 (Herbicidal rate of 70% or more and less than 90%) | herbicidal effect on L: windgrass (windgrass [7]): 0 (Herbicidal rate of 5% or less (almost no effect)) | herbicidal effect on M: velvetleaf (velvetleaf [8]): 4 (Herbicidal rate of 70% or more and less than 90%) | herbicidal effect on N: redroot pigweed (redroot pigweed [9]): 5 (Herbicidal rate of 90% or more (almost completely withered)) | herbicidal effect on O: lambsquarters (lambsquarters [10]): 5 (Herbicidal rate of 90% or more (almost completely withered)) | herbicidal effect on Q: false cleavers (false cleavers): 5 (Herbicidal rate of 90% or more (almost completely withered)) | F: southern crabgrass, herbicidal effect (criteria 0-5) (southern crabgrass [11]; [27]): 4 (Herbicidal rate of 70% or more and less than 90%) | G: green foxtail, herbicidal effect (criteria 0-5) (green foxtail [12]; [27]): 5 (Herbicidal rate of 90% or more (almost completely withered)) | H: barnyard grass, herbicidal effect (criteria 0-5) (barnyard grass [13]; [27]): 5 (Herbicidal rate of 90% or more (almost completely withered)) | I: wild oat, herbicidal effect (criteria 0-5) (wild oat [14]; [27]): 0 (Herbicidal rate of 5% or less (almost no effect)) | J: blackgrass, herbicidal effect (criteria 0-5) (blackgrass [15]; [27]): 5 (Herbicidal rate of 90% or more (almost completely withered)) | K: Italian ryegrass, herbicidal effect (criteria 0-5) (Italian ryegrass [16]; [27]): 5 (Herbicidal rate of 90% or more (almost completely withered)) | L: windgrass, herbicidal effect (criteria 0-5) (windgrass [17]; [27]): 5 (Herbicidal rate of 90% or more (almost completely withered)) | M: velvetleaf, herbicidal effect (criteria 0-5) (velvetleaf [18]; [27]): 5 (Herbicidal rate of 90% or more (almost completely withered)) | N: redroot pigweed, herbicidal effect (criteria 0-5) (redroot pigweed [19]; [27]): 5 (Herbicidal rate of 90% or more (almost completely withered)) | O: lambsquarters, herbicidal effect (criteria 0-5) (lambsquarters [20]; [27]): 5 (Herbicidal rate of 90% or more (almost completely withered)) | P: chickweed, herbicidal effect (criteria 0-5) (chickweed [21]; [27]): 5 (Herbicidal rate of 90% or more (almost completely withered)) | R: persian speedwell, herbicidal effect (criteria 0-5) (persian speedwell [22]; [27]): 5 (Herbicidal rate of 90% or more (almost completely withered))

Cc1nn(C)c(=O)c(-c2c(-c3ccc(C#N)cc3)sc3c(F)cccc23)c1O [4-052]
herbicidal effect on barnyard grass (H) (barnyard grass [1]; 320 g/ha): 5 (Herbicidal rate of 90% or more (almost completely withered)) | herbicidal effect on Chinese sprangletop (D) (Chinese sprangletop; 320 g/ha): 3 (Herbicidal rate of 40% or more and less than 70%) | herbicidal effect on rice flat sedge (E) (rice flat sedge; 320 g/ha): 4 (Herbicidal rate of 70% or more and less than 90%) | Herbicidal effect by soil treatment, F: southern crabgrass (southern crabgrass [2]): 0 (Herbicidal rate of 5% or less (almost no effect)) | Herbicidal effect by soil treatment, G: green foxtail (green foxtail [3]): 0 (Herbicidal rate of 5% or less (almost no effect)) | Herbicidal effect by soil treatment, H: barnyard grass (barnyard grass [4]): 0 (Herbicidal rate of 5% or less (almost no effect)) | Herbicidal effect by soil treatment, I: wild oat (wild oat [5]): 0 (Herbicidal rate of 5% or less (almost no effect)) | Herbicidal effect by soil treatment, J: blackgrass (blackgrass [23]): 0 (Herbicidal rate of 5% or less (almost no effect)) | Herbicidal effect by soil treatment, K: Italian ryegrass (Italian ryegrass [6]): 0 (Herbicidal rate of 5% or less (almost no effect)) | Herbicidal effect by soil treatment, L: windgrass (windgrass [7]): 0 (Herbicidal rate of 5% or less (almost no effect)) | Herbicidal effect by soil treatment, M: velvetleaf (velvetleaf [8]): 1 (Herbicidal rate of 5% or more and less than 20%) | Herbicidal effect by soil treatment, N: redroot pigweed (redroot pigweed [9]): 4 (Herbicidal rate of 70% or more and less than 90%) | Herbicidal effect by soil treatment, O: lambsquarters (lambsquarters [10]): 2 (Herbicidal rate of 20% or more and less than 40%) | Herbicidal effect by soil treatment, P: chickweed (chickweed [24]): 3 (Herbicidal rate of 40% or more and less than 70%) | Herbicidal effect by soil treatment, Q: false cleavers (false cleavers): 0 (Herbicidal rate of 5% or less (almost no effect)) | Herbicidal effect by soil treatment, R: persian speedwell (persian speedwell [25]): 4 (Herbicidal rate of 70% or more and less than 90%) | herbicidal effect on F: southern crabgrass (evaluation grade 0-5) (southern crabgrass [11]; [28]): 0 (Herbicidal rate of 5% or less (almost no effect)) | herbicidal effect on G: green foxtail (evaluation grade 0-5) (green foxtail [12]; [28]): 5 (Herbicidal rate of 90% or more (almost completely withered)) | herbicidal effect on H: barnyard grass (evaluation grade 0-5) (barnyard grass [13]; [28]): 5 (Herbicidal rate of 90% or more (almost completely withered)) | herbicidal effect on I: wild oat (evaluation grade 0-5) (wild oat [14]; [28]): 0 (Herbicidal rate of 5% or less (almost no effect)) | herbicidal effect on J: blackgrass (evaluation grade 0-5) (blackgrass [15]; [28]): 0 (Herbicidal rate of 5% or less (almost no effect)) | herbicidal effect on K: Italian ryegrass (evaluation grade 0-5) (Italian ryegrass [16]; [28]): 3 (Herbicidal rate of 40% or more and less than 70%) | herbicidal effect on L: windgrass (evaluation grade 0-5) (windgrass [17]; [28]): 0 (Herbicidal rate of 5% or less (almost no effect)) | herbicidal effect on M: velvetleaf (evaluation grade 0-5) (velvetleaf [18]; [28]): 5 (Herbicidal rate of 90% or more (almost completely withered)) | herbicidal effect on N: redroot pigweed (evaluation grade 0-5) (redroot pigweed [19]; [28]): 5 (Herbicidal rate of 90% or more (almost completely withered)) | herbicidal effect on O: lambsquarters (evaluation grade 0-5) (lambsquarters [20]; [28]): 4 (Herbicidal rate of 70% or more and less than 90%) | herbicidal effect on P: chickweed (evaluation grade 0-5) (chickweed [21]; [28]): 5 (Herbicidal rate of 90% or more (almost completely withered)) | herbicidal effect on R: persian speedwell (evaluation grade 0-5) (persian speedwell [22]; [28]): 5 (Herbicidal rate of 90% or more (almost completely withered))
